Measured values reported in patent publication US11026942B2, “Agent for preventing and/or treating Alzheimer's disease” (KYOTO UNIVERSITY, priority 2015, dated 2021).

Key:
Type in all cases: cell-based, human
Aβ42 = Aβ42 in FAD1 iPS cell-derived nerve cells (primary/secondary screening, dose dependency); conditions: secondary screening, FAD1 iPS cell-derived nerve cells, numerical value (Aβ change rate)
From the text: (§1) To perform induction from iPS cells to the cerebral cortex nerve early and with high reproducibility, iPS cells introduced with human Neurogenin 2 gene (NGN2) linked to doxycycline-inducible promoter by using PiggyBac were used (FIG. 1a, FIG. 1b, FIG. 4a and FIG. 4b). IPS cells prepared from 4 patients with familial Alzheimer's disease (FAD), 2 patients with sporadic Alzheimer's disease (SAD) and 4 healthy individuals (HC) were used. The iPS cells were established by the method described in Okita K et al., Nature.
(§2) Structural formulas (those in the form of salt or halide are also described as free form) and the general names of the candidate compounds are shown in Table 1.
(§3) To further study reproducibility of the candidate drugs obtained by the primary screening, secondary screening was conducted. In addition to Aβ40, Aβ42, Aβ42/40 ratio, Aβ38, Aβ43, sAPPα, sAPPβ were also studied and each numerical value was obtained.

Aβ42/40 ratio = Aβ42/40 ratio in FAD1 iPS cell-derived nerve cells (primary/secondary screening, dose dependency); conditions: secondary screening
From the text: as §1, §2, §3

Aβ38 = Aβ38 in FAD1 iPS cell-derived nerve cells (secondary screening); parameters: scale not given here
Experimental: as §3

Aβ43 = Aβ43 in FAD1 iPS cell-derived nerve cells (secondary screening); parameters: scale not given here
Experimental: as §3

sAPPα = sAPPα in FAD1 iPS cell-derived nerve cells (secondary screening); parameters: scale not given here; conditions: secondary screening, FAD1 iPS cell-derived nerve cells
Experimental: as §3

sAPPβ = sAPPβ in FAD1 iPS cell-derived nerve cells (secondary screening); parameters: sAPPβ: scale not given here; conditions: secondary screening, FAD1 iPS cell-derived nerve cells
Experimental: as §3

| SMILES | Aβ42 (Aβ42) | Ratio Aβ42/40 (Aβ42/40 ratio) | Aβ38 (Aβ38) | Aβ43 (Aβ43) | sAPPα (sAPPα) | sAPPβ (sAPPβ) |
| --- | --- | --- | --- | --- | --- | --- |
| Cc1cc2c(cc1S(N)(=O)=O)S(=O)(=O)CCC2 [compound 119] | 0.74 | 0.78 | 1.14 | 1.16 | 1.07 | 0.87 |
| CC(C)(C)NCC(O)c1ccccc1Cl (stereo not drawn) [compound 82, TULOBUTEROL] | 0.83 | 0.85 | 1 | 0.84 | 0.87 | 0.74 |
| CC(C)n1c(/C=C/[C@H](O)C[C@@H](O)CC(=O)O)c(-c2ccc(F)cc2)c2ccccc21 [compound 60, FLUVASTATIN] | 0.96 | 0.84 | 1.16 | 1.04 | 0.99 | 1.14 |
| O=C1c2ccccc2C(=O)C1c1ccc(Cl)cc1 [compound 127, CHLORINDIONE] | 0.79 | 0.85 | 0.92 | 0.87 | 0.74 | 0.67 |
| Oc1ccc(Cl)cc1Cc1cc(Cl)ccc1O [compound 94, DICHLOROPHENE] | 0.79 | 0.89 | 0.94 | 0.87 | 0.78 | 0.85 |
| CN1Cc2c(N)cccc2C(c2ccccc2)C1 (stereo not drawn) [compound 28, NOMIFENSINE] | 0.8 | 0.75 | 0.95 | 0.85 | 0.82 | 0.67 |
| CCOC(=O)OC(C)OC(=O)[C@@H]1N2C(=O)[C@@H](NC(=O)[C@H](N)c3ccccc3)[C@H]2SC1(C)C (stereo partly drawn) [compound 59, BACAMPICILLIN] | 1.09 | 1.15 | 1.32 | 1.44 | 1.11 | 1.23 |
| CCCCOc1ccc(C(=O)CCN2CCCCC2)cc1 [compound 55, DYCLONINE] | 0.94 | 0.99 | 1.07 | 0.9 | 0.83 | 0.76 |
| CSc1ccc2c(c1)C(N1CCN(C)CC1)Cc1ccccc1S2 (stereo not drawn) [compound 31, METITEPINE] | 0.83 | 0.86 | 1.03 | 0.88 | 0.76 | 0.66 |
| Nc1nc(/C(=C/CC(=O)O)C(=O)N[C@@H]2C(=O)N3C(C(=O)O)=CCS[C@H]23)cs1 [compound 62, CEFTIBUTEN] | 0.79 | 0.87 | 1.01 | 0.83 | 0.76 | 0.55 |
| CN1C(=O)CC[C@H]1c1cccnc1 [compound 10, COTININE] | 0.87 | 0.94 | 1.08 | 0.87 | 0.81 | 0.81 |
| CNC(=C[N+](=O)[O-])NCCSCc1csc(CN(C)C)n1 [compound 78, NIZATIDINE] | 1.04 | 0.98 | 1.3 | 1.15 | 0.97 | 1.29 |
| C/N=C(\NC#N)NCCSCc1nc[nH]c1C [compound 79, CIMETIDINE] | 0.98 | 1.04 | 1.03 | 0.92 | 0.87 | 0.88 |
| O=C(O)[C@H]1/C(=C/CO)O[C@@H]2CC(=O)N21 [compound 118, CLAVULANIC ACID] | 0.84 | 0.88 | 1.01 | 0.75 | 0.88 | 1 |
| CC1(C)O[C@@H]2[C@@H](CO[C@@]3(COS(N)(=O)=O)OC(C)(C)O[C@@H]23)O1 [compound 100, TOPIRAMATE] | 0.79 | 0.92 | 0.9 | 1.02 | 0.81 | 0.78 |
| O=C(O)c1cccnc1Nc1cccc(C(F)(F)F)c1 [compound 37, NIFLUMIC ACID] | 0.77 | 0.86 | 0.97 | 0.85 | 0.8 | 0.92 |
| Nc1ccc(C(=O)O)c(O)c1 [compound 50, AMINOSALICYLATE] | 1.03 | 1.08 | 1.2 | 1.22 | 1 | 1.31 |
| Cc1cc(CC(=O)O)n(C)c1C(=O)c1ccc(Cl)cc1 [compound 65, ZOMEPIRAC] | 0.79 | 0.85 | 0.92 | 0.83 | 0.73 | 0.76 |

| SMILES | Aβ42 (Aβ42) | Ratio Aβ42/40 (Aβ42/40 ratio) | Aβ38 (Aβ38) | Aβ43 (Aβ43) | sAPPα (sAPPα) | sAPPβ (sAPPβ) |
| --- | --- | --- | --- | --- | --- | --- |
| CC1=NS(=O)(=O)c2cc(Cl)ccc2N1 [compound 125, DIAZOXIDE] | 0.92 | 0.97 | 1.08 | 0.9 | 0.84 | 0.84 |
| CCCCCCCCCCCCCCCC[N+](C)(C)C [compound 113, CETRIMONIUM] | 0.71 | 0.74 | 0.56 | 0.56 | 0.76 | 0.59 |
| CC(C(O)c1ccc(O)cc1)N1CCC(Cc2ccccc2)CC1 (stereo not drawn) [compound 44, IFENPRODIL] | 1 | 0.96 | 1.23 | 1.03 | 1.13 | 1.09 |
| N[C@@H]1CONC1=O [compound 114, CYCLOSERINE] | 0.92 | 0.95 | 1.06 | 0.85 | 0.84 | 0.82 |
| CCOc1ccc(NC(=O)CC(C)O)cc1 (stereo not drawn) [compound 70, BUCETIN] | 0.82 | 0.88 | 1.02 | 0.85 | 0.75 | 0.75 |
| O=C(O)CCNC(=O)c1ccccc1 [compound 32, BETAMIPRON] | 0.84 | 0.82 | 1.1 | 0.82 | 0.7 | 0.6 |
| CN1CCCN=C1COC(=O)C(O)(c1ccccc1)C1CCCCC1 (stereo not drawn) [compound 1, OXYPHENCYCLIMINE] | 0.99 | 1.03 | 1.08 | 0.98 | 0.91 | 1 |
| FC(F)(F)COCC(F)(F)F [compound 130, FLUROTHYL] | 0.8 | 0.85 | 1.03 | 0.81 | 0.79 | 0.69 |
| CC(=O)Nc1ccc(OC(C)=O)cc1 [compound 68, DIACETAMATE] | 0.86 | 0.76 | 1.08 | 0.97 | 0.98 | 0.86 |
| COc1ccc(CCN(C)CCCC(C#N)(c2ccc(OC)c(OC)c2)C(C)C)cc1OC (stereo not drawn) [compound 75] | 0.74 | 0.91 | 0.89 | 0.75 | 0.81 | 0.71 |
| c1cnc(N2CCN(Cc3ccc4c(c3)OCO4)CC2)nc1 [compound 36, PIRIBEDIL] | 0.87 | 0.83 | 1.11 | 1.09 | 0.92 | 0.82 |
| CN(C)CCc1c[nH]c2ccc(Cn3cncn3)cc12 [compound 80, RIZATRIPTAN] | 0.96 | 0.85 | 1.2 | 1.07 | 0.96 | 1.08 |
| c1ccc2c(c1)OCC(C1=NCCN1)O2 (stereo not drawn) [compound 43, IDAZOXAN] | 0.93 | 0.99 | 1.03 | 0.97 | 0.84 | 0.81 |
| CCCc1nc(C(C)(C)O)c(C(=O)OCc2oc(=O)oc2C)n1Cc1ccc(-c2ccccc2-c2nn[nH]n2)cc1 [compound 61, OLMESARTAN MEDOXOMIL] | 0.82 | 0.86 | 0.85 | 0.9 | 0.8 | 0.86 |
| CNCCc1ccccn1 [compound 21, BETAHISTINE] | 0.98 | 1.08 | 1.01 | 0.87 | 0.73 | 0.91 |
| CCCCOC(=O)c1ccc(O)cc1 [compound 53, BUTYL PARABEN] | 0.94 | 1.02 | 1.04 | 0.81 | 0.74 | 0.69 |
| Cc1ncc(CNC(=O)N(CCCl)N=O)c(N)n1 [compound 83, NIMUSTINE] | 0.84 | 0.86 | 1.04 | 0.89 | 0.81 | 0.89 |
